Read-outs that look alike come from different tables or passages of the source.
Target: T1, NR2F6 (Homo sapiens, UniProt P10588)
T1 construct: expressed in transfected cells; also transient transfection
T1 sequence (P10588 1-404): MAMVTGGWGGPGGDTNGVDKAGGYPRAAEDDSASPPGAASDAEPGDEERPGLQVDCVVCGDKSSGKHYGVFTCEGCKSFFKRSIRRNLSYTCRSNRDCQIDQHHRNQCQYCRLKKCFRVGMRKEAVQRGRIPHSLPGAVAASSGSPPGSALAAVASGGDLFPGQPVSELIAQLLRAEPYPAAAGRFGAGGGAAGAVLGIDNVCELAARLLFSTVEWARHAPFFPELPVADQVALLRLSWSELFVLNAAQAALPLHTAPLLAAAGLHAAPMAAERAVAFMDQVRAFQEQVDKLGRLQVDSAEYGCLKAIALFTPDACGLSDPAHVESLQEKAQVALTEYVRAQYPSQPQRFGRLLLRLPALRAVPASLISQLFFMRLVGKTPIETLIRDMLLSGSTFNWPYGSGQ
Assay: NR2F6 agonist screening, Firefly signal cmpd/DMSO
Assay type: cell-based
Parameters: Firefly NR2F6 full length, cmpd/DMSO (mean) / Firefly F4, cmpd/DMSO (mean): unit of the concentration uncertain
Conditions: for Firefly/Renilla (NR2F6 stable, clone F4): ratio Firefly/Renilla; for Firefly, NR2F6 stable (clone F4)/pGL4: ratio of Firefly in NR2F6 stable clone F4 to pGL4

[1] = C11 analogs follow set (Tables 2-10), repeat 1
[2] = C11 analogs follow set (Tables 2-10), repeat 2
[3] = Concentration 2 (unit uncertain)
[4] = Concentration 10 (unit uncertain)
[5] = Concentration 40 (unit uncertain)

Compound: COc1ccc(S(=O)(=O)c2cc3cccc(OC)c3oc2=O)cc1 [Compound C232]
- Firefly, cmpd/DMSO repeat 1 (Table 9, repeat 1): 1.0
- Firefly, cmpd/DMSO repeat 2 (Table 9, repeat 2): 0.9

Compound: COc1ccc2oc(=O)c(S(=O)(=O)c3ccc(OC)c(OC)c3)cc2c1 [Compound C156]
- Firefly, cmpd/DMSO repeat 1 [1]: 1.0
- Firefly, cmpd/DMSO repeat 2 [2]: 1.0

Compound: COc1ccc2oc(=O)c(S(=O)(=O)c3ccc(F)c(Cl)c3)cc2c1 [Compound C158]
- Firefly, cmpd/DMSO repeat 1 [1]: 1.5
- Firefly, cmpd/DMSO repeat 2 [2]: 1.2

Compound: COc1ccc2cc(S(=O)(=O)c3ccc(Br)cc3)c(=O)oc2c1 [Compound C267]
- Firefly, cmpd/DMSO repeat 1 [1]: 1.4
- Firefly, cmpd/DMSO repeat 2 [2]: 1.7

Compound: O=C(Nc1ccc(F)cc1)c1ccc2oc(=O)c(S(=O)(=O)c3ccc(F)cc3)cc2c1 [Compound C159]
- Firefly, cmpd/DMSO repeat 1 [1]: 0.9
- Firefly, cmpd/DMSO repeat 2 [2]: 1.2

Compound: Cc1cc(C)n2nc(CNS(=O)(=O)c3c(F)c(F)c(F)c(F)c3F)nc2n1 [Compound E21]
- Firefly, cmpd/DMSO (mean) (mean of repeats): 7.3
- Firefly, cmpd repeat 1 (raw signal, repeat 1): 526
- Firefly, cmpd repeat 2 (raw signal, repeat 2): 306
- Firefly, cmpd/DMSO repeat 1 (repeat 1): 9.5
- Firefly, cmpd/DMSO repeat 2 (repeat 2): 5.6
- activity (in words) (screening result): desirable activity

Compound: Cc1ccc(S(=O)(=O)NCc2cn3cccc(C)c3n2)cc1C [Compound E41]
- Firefly F4, cmpd/DMSO (mean) [3]: 0.9
- Firefly NR2F6 full length, cmpd/DMSO (mean) [3]: 1.1
- Firefly F4, cmpd/DMSO (mean) [4]: 0.7
- Firefly NR2F6 full length, cmpd/DMSO (mean) [4]: 1.0
- Firefly F4, cmpd/DMSO (mean) [5]: 0.4
- Firefly NR2F6 full length, cmpd/DMSO (mean) [5]: 0.9

Compound: COc1ccc(S(=O)(=O)c2cc3cc(F)ccc3oc2=O)cc1 [Compound C214]
- Firefly, cmpd/DMSO repeat 1 [1]: 1.9
- Firefly, cmpd/DMSO repeat 2 [2]: 1.9

Compound: COc1ccc2cc(S(=O)(=O)c3ccc(C)c(C)c3)c(=O)oc2c1 [Compound C270]
- Firefly, cmpd/DMSO repeat 1 [1]: 3.2
- Firefly, cmpd/DMSO repeat 2 [2]: 3.1

Compound: COc1cc(Br)cc2cc(S(=O)(=O)c3ccc(F)cc3)c(=O)oc12 [Compound C295]
- Firefly, cmpd/DMSO repeat 1 (Table 11, repeat 1): 4.0
- Firefly, cmpd/DMSO repeat 2 (Table 11, repeat 2): 4.6

Compound: COc1cccc(S(=O)(=O)c2cc3cc(Br)ccc3oc2=O)c1 [Compound C185]
- Firefly, cmpd/DMSO repeat 1 [1]: 2.6
- Firefly, cmpd/DMSO repeat 2 [2]: 2.4

Compound: Cc1ccc(S(=O)(=O)c2cc3ccccc3oc2=O)cc1C [Compound C104]
- Firefly, cmpd/DMSO repeat 1 [1]: 3.1
- Firefly, cmpd/DMSO repeat 2 [2]: 4.4

Compound: CCN(CC)c1ccc2cc(S(=O)(=O)c3ccc(Br)cc3)c(=O)oc2c1 [Compound C278]
- Firefly, cmpd/DMSO repeat 1 [1]: 2.4
- Firefly, cmpd/DMSO repeat 2 [2]: 3.0

Compound: Cc1ccc(NC(=O)c2ccc3oc(=O)c(S(=O)(=O)c4ccc(Cl)cc4)cc3c2)c(C)c1 [Compound C166]
- Firefly, cmpd/DMSO repeat 1 [1]: 3.4
- Firefly, cmpd/DMSO repeat 2 [2]: 4.2

Compound: COc1cc(Br)cc2cc(S(=O)(=O)c3ccccc3)c(=O)oc12 [Compound C294]
- Firefly, cmpd/DMSO repeat 1 (Table 11, repeat 1): 16.5
- Firefly, cmpd/DMSO repeat 2 (Table 11, repeat 2): 16.5

Compound: COc1cc(Br)cc2cc(S(=O)(=O)c3ccc(C(C)(C)C)cc3)c(=O)oc12 [Compound C297]
- Firefly, cmpd/DMSO repeat 1 (Table 11, repeat 1): 1.5
- Firefly, cmpd/DMSO repeat 2 (Table 11, repeat 2): 2.6

Compound: COc1ccc2cc(S(=O)(=O)c3ccc(F)c(Cl)c3)c(=O)oc2c1 [Compound C275]
- Firefly, cmpd/DMSO repeat 1 [1]: 2.6
- Firefly, cmpd/DMSO repeat 2 [2]: 2.5

Compound: COC(=O)c1ccc2oc(=O)c(S(=O)(=O)c3ccc(OC)cc3)cc2c1 [Compound C12]
- Firefly, cmpd/DMSO repeat 1 [1]: 20.0
- Firefly, cmpd/DMSO repeat 2 [2]: 16.7
- Firefly/Renilla (NR2F6 stable, clone F4) (Table 12): 2.6
- Firefly, NR2F6 stable (clone F4)/pGL4 (Table 12): 6.6
- Firefly, cmpd/DMSO repeat 1 (Table 12, repeat 1): 20.0
- Firefly, cmpd/DMSO repeat 2 (Table 12, repeat 2): 16.7

Compound: COc1ccc2cc(S(=O)(=O)c3ccc(C(C)C)cc3)c(=O)oc2c1 [Compound C269]
- Firefly, cmpd/DMSO repeat 1 [1]: 3.0
- Firefly, cmpd/DMSO repeat 2 [2]: 3.0

Compound: Cc1ccc(NC(=O)c2ccc3oc(=O)c(S(=O)(=O)c4ccccc4)cc3c2)cc1C [Compound C167]
- Firefly, cmpd/DMSO repeat 1 [1]: 1.0
- Firefly, cmpd/DMSO repeat 2 [2]: 0.7

Compound: COc1ccc(-c2noc(Cn3ncc(Cl)cc3=O)n2)cc1 [Compound Z142]
- Firefly, cmpd/DMSO (mean): 1.1

Compound: COc1ccc(NC(=O)c2ccc3oc(=O)c(S(=O)(=O)c4ccc(C)cc4)cc3c2)cc1 [Compound C178]
- Firefly, cmpd/DMSO repeat 1 [1]: 15.2
- Firefly, cmpd/DMSO repeat 2 [2]: 16.9

Compound: CCN(CC)c1ccc2cc(S(=O)(=O)c3ccc(Cl)cc3)c(=O)oc2c1 [Compound C279]
- Firefly, cmpd/DMSO repeat 1 [1]: 3.9
- Firefly, cmpd/DMSO repeat 2 [2]: 2.1

Compound: COc1ccc2oc(=O)c(S(=O)(=O)c3cccc(Cl)c3)cc2c1 [Compound C222]
- Firefly, cmpd/DMSO repeat 1 [1]: 4.5
- Firefly, cmpd/DMSO repeat 2 [2]: 3.7
- Firefly/Renilla (NR2F6 stable, clone F4) (Table 13): 2.0
- Firefly, NR2F6 stable (clone F4)/pGL4 (Table 13): 3.6
- Firefly, cmpd/DMSO repeat 1 (Table 13, repeat 1): 4.5
- Firefly, cmpd/DMSO repeat 2 (Table 13, repeat 2): 3.7

Compound: Cc1ccc(S(=O)(=O)c2cc3cc(Cl)ccc3oc2=O)cc1Cl [Compound C188]
- Firefly, cmpd/DMSO repeat 1 [1]: 9.4
- Firefly, cmpd/DMSO repeat 2 [2]: 8.7
- Firefly/Renilla (NR2F6 stable, clone F4) (Table 13): 1.2
- Firefly, NR2F6 stable (clone F4)/pGL4 (Table 13): 5.0
- Firefly, cmpd/DMSO repeat 1 (Table 13, repeat 1): 9.4
- Firefly, cmpd/DMSO repeat 2 (Table 13, repeat 2): 8.7

Compound: COc1ccc(S(=O)(=O)c2cc3cc(Br)ccc3oc2=O)cc1 [Compound C199]
- Firefly, cmpd/DMSO repeat 1 [1]: 19.3
- Firefly, cmpd/DMSO repeat 2 [2]: 16.1

Compound: O=c1oc2ccc(Cl)cc2cc1S(=O)(=O)c1cccc(F)c1 [Compound C182]
- Firefly, cmpd/DMSO repeat 1 [1]: 16.2
- Firefly, cmpd/DMSO repeat 2 [2]: 17.3
- Firefly/Renilla (NR2F6 stable, clone F4) (Table 13): 1.2
- Firefly, NR2F6 stable (clone F4)/pGL4 (Table 13): 8.2
- Firefly, cmpd/DMSO repeat 1 (Table 13, repeat 1): 16.2
- Firefly, cmpd/DMSO repeat 2 (Table 13, repeat 2): 17.3

Compound: COc1ccc2oc(=O)c(S(=O)(=O)c3ccc(F)c(C)c3)cc2c1 [Compound C225]
- Firefly, cmpd/DMSO repeat 1 [1]: 1.5
- Firefly, cmpd/DMSO repeat 2 [2]: 3.1

Compound: Cc1ccc2oc(=O)c(S(=O)(=O)c3cccc(C#N)c3)cc2c1 [Compound C299]
- Firefly/Renilla (NR2F6 stable, clone F4) (Table 12): 4.0
- Firefly, NR2F6 stable (clone F4)/pGL4 (Table 12): 10.1
- Firefly, cmpd/DMSO repeat 1 (Table 12, repeat 1): 21.5
- Firefly, cmpd/DMSO repeat 2 (Table 12, repeat 2): 15.2

Compound: Cc1ccc(S(=O)(=O)c2cc3cc(Br)cc(Br)c3oc2=O)cc1C [Compound C285]
- Firefly, cmpd/DMSO repeat 1 (Table 11, repeat 1): 1.0
- Firefly, cmpd/DMSO repeat 2 (Table 11, repeat 2): 1.0

Compound: COc1ccc(-c2noc(Cn3nccc(Cl)c3=O)n2)cc1 [Compound Z141]
- Firefly, cmpd/DMSO (mean): 1.8

Compound: COc1ccc(-c2noc(Cn3ncc(C)c(C)c3=O)n2)cc1 [Compound Z140]
- Firefly, cmpd/DMSO (mean): 1.2

Compound: COc1ccc(S(=O)(=O)NCc2nc3nc(C)cc(C)n3n2)cc1OC [Compound E8]
- Firefly F4, cmpd/DMSO (mean) [3]: 1.0
- Firefly NR2F6 full length, cmpd/DMSO (mean) [3]: 1.2
- Firefly F4, cmpd/DMSO (mean) [4]: 1.0
- Firefly NR2F6 full length, cmpd/DMSO (mean) [4]: 1.2
- Firefly F4, cmpd/DMSO (mean) [5]: 0.7
- Firefly NR2F6 full length, cmpd/DMSO (mean) [5]: 0.9

Compound: COc1ccc(-c2noc(Cn3nccc(C)c3=O)n2)cc1 [Compound Z153]
- Firefly, cmpd/DMSO (mean): 2.0

Compound: COc1ccccc1-c1noc(Cn2nccc(C)c2=O)n1 [Compound Z151]
- Firefly, cmpd/DMSO (mean): 1.1

Compound: CCOc1cccc2cc(S(=O)(=O)c3ccc(C)c(C)c3)c(=O)oc12 [Compound C243]
- Firefly, cmpd/DMSO repeat 1 (Table 9, repeat 1): 2.0
- Firefly, cmpd/DMSO repeat 2 (Table 9, repeat 2): 3.3

Compound: O=c1oc2ccccc2cc1S(=O)(=O)c1ccccc1F [Compound C108]
- Firefly, cmpd/DMSO repeat 1 [1]: 7.9
- Firefly, cmpd/DMSO repeat 2 [2]: 7.3
- Firefly/Renilla (NR2F6 stable, clone F4) (Table 12): 2.6
- Firefly, NR2F6 stable (clone F4)/pGL4 (Table 12): 5.5
- Firefly, cmpd/DMSO repeat 1 (Table 12, repeat 1): 7.9
- Firefly, cmpd/DMSO repeat 2 (Table 12, repeat 2): 7.3
